Measured values taken from patent publication US20030203963A1, “Antimicrobial agent” (priority 2001, published 2003).

Assays:
B. cereus = experiment: Test in milk; format: cell-based, Bacillus cereus; settings: TMGB010605; for Control for: milk at 20° C.
Description: (§1) 8.9 ml samples of UHT milk containing 0.5% glucose and the indicator bromocresol purple (0.01%) were prepared and sterilised by autoclaving. The pH before APP addition was pH 6.65. Appropriate stock solutions of APP batch number APP20010215 (at 138 mg/ml) were prepared and filter sterilised. 1 ml of each was added to the milk to prepare tests containing 0, 1000 and 2000 ppm APP. Tests were then inoculated with 100 μl of diluted overnight broth cultures or spore suspensions to give a final inoculum level of ca. 10^3 cfu/ml. These and uninoculated tests were incubated at 20 and 8° C. and examined daily for visible changes compared to uninoculated control.

B. subtilis Campden = experiment: Bioscreen growth inhibition test; format: cell-based, Bacillus subtilis; settings: BS010510, 24 h at 30° C., APP20010213
Description: (§2) For broth cultures and Bioscreen testing most bacteria were grown in Brain Heart Infusion (BHI, Oxoid, pH 7.4). Lactobacillus sake A10 was grown in de Man, Rogosa, Sharpe medium ([…], Oxoid). Yeasts were grown in Sabouraud Liquid medium (SLM, Oxoid). Most bacteria were cultured at 30° C. Lactic acid bacteria were grown on solid medium in enriched CO2 atmosphere. Clostridium species were grown in Reinforced Clostridial Medium (RCM) at 37° C. anaerobically. Brochothrix thermosphacta fungi and yeasts were grown at 25° C. Fungi were cultured on Malt Extract Agar (MEA, Oxoid).
(§3) An automated Microbiology Reader Bioscreen C was used to measure growth curves of the strains in the presence and absence of APP. The Bioscreen C measures the development of turbidity (i.e. growth) kinetically by vertical photometry in 200 wells of a honeycomb microtitre plate, simultaneously. The system consists of a Bioscreen C analyser, which is an incubator and measurement unit, integrated with a PC, software (BioLink v 5.30), printer and a ‘Honeycomb 2’ cuvette multiwell plate. Growth curve data can be analysed within the BioLink software or exported to programs such as Excel.
Broth culture media were dispensed in 270 μl volumes into the wells as directed. […] (depending on the micro-organism under investigation) with readings taken every 20 minutes after the trays were shaken. […]

Lb. sake = experiment: Test in milk; format: cell-based, Lactobacillus sake; settings: for Control of growth: 2000 ppm, TMGB010605
Description: as §1

Salm. Typhimurium S29 = experiment: Bioscreen growth inhibition test; format: cell-based, Salmonella Typhimurium; settings: BS010411, 24 h/30° C.
Description: as §2, §3
Broth culture media were dispensed in 270 μl volumes into the wells as directed. Serial dilutions of a filter-sterilised APP stock solution were then dispensed into the same wells, as appropriate. The wells were inoculated with 30 μl of an appropriately diluted overnight broth culture or spore suspension, to give a final inoculum level of […]. The tests were incubated in the Bioscreen C for either 24 h at 30° C., or 72 h at 25° C. (depending on the micro-organism under investigation) with readings taken every 20 minutes after the trays were shaken. After the incubation period was complete the data were exported to Excel for analysis.

B. cereus 204 = experiment: Chicken soup trial at 8° C.; format: cell-based, Bacillus cereus; settings: chicken soup at 8° C.
Source text: A local supermarket brand of cream of chicken soup was used as a model food system. 600 g packs were purchased from the local supermarket. This was a ‘fresh home-made type’ of soup that was stored in the chill cabinet, with a short shelf life. It was chosen because it is a rich, nutritious food system containing a range of food components including meat, dairy and vegetable.
Ingredients were labelled as: chicken stock (water, duck fat, chicken, salt, flavourings, yeast extracts, pork gelatine, glucose syrup, vegetable concentrate, milk protein, sugar, malto-dextrin, vegetable oil, citric acid, lactose, chicken fat), ilk, chicken (9%), cream (8%), onion, potato, vegetable oil, modified maize starch, wheat flour, lemon juice, salt, white pepper. pH 5.912. Protein: 3.3%; carbohydrate: 4.7%; fat: 7.2%; fibre: 0.2%; sodium: 0.1%
For the test the soup was mixed 2:1 in water (to facilitate sampling and mixing) and sterilised by autoclaving at 121° C. for 15 minutes. For each experiment the pH of the soup was recorded; this was between pH 5.79-5.88.
For TCS010412/8 (which was incubated at 8° C.), APP batch number APP20010213 (concentration 169 mg APP/ml) was used to prepare tests containing 0, 2000 or 4000 ppm APP. 5 g of filter-sterilised APP stock solution was added to 94 g of soup, mixed and then 1 ml of a diluted inoculum suspension (cells or spores as appropriate) was added to give a test inoculum level of 10^3 cfu/g. The soup mixture was shaken vigorously to ensure homogeneous distribution of the APP and micro-organisms. The tests were tested by viable count and then incubated at 8° C. and tested on a twice-weekly basis.
For TCS010521/8 (incubated at 8° C.), samples were prepared in 27.8 g quantities. 1.5 g of an APP stock solution was added, and the tests inoculated with 0.3 ml of a suitably diluted cell or spore suspension to give a final inoculum of ca. 10^3 cfu/g. APP was tested at 0, 500 and 1000 ppm, and batch number APP20010213 (at 169 mg/ml) was used. The tests were sampled by viable count and then incubated at 8° C. and tested on a twice-weekly basis.

Stability in water = format: physicochemical; settings: water at 24° C.
Description: Tests indicate that APP is stable in water at 24° C. for 2 weeks, but completely disappears after 2 months. […] At pH 11-12.5 APP has a half-life of 5 h. Since most food is acidic or neutral, the stability may therefore be improved by using APP in combination with an antioxidant such as those listed hereinbefore.

[1] = tests disclosed by Baute et al., Phytochemistry 33 (1993); cited from earlier work

## O=C1CC(CO)OC=C1O (stereo not shown) [APP, Ascopyrone P]
B. cereus; 1000 ppm
  Control for: 4 days
B. cereus; 2000 ppm, milk at 8° C.
  Control of growth: No control observed
B. cereus; 2000 ppm
  Control for: 6 days
B. subtilis Campden
  APP level causing significant inhibition: 2000 ppm
  APP level causing total inhibition: 3000 ppm
Lb. sake; milk at 8° C.
  Control of growth: No control observed
Lb. sake; milk at 20° C.
  Control of growth: No control observed
Lb. sake; Milk at 8° C. pH 6.65
  No inhibition (effect on growth of target organism by 2000 ppm APP): Lb. sake
Lb. sake; Milk at 20° C. pH 6.65
  No inhibition (effect on growth of target organism by 2000 ppm APP): Lb. sake
Salm. Typhimurium S29; APP 20010213
  APP level causing significant inhibition: 2000 ppm
  APP level causing total inhibition: 4000 ppm
Salm. Typhimurium S29; APP 20010215
  APP level causing significant inhibition: 2000 ppm
  APP level causing total inhibition: >4000 ppm
B. cereus 204; 500 and 1000 ppm, TCSM010521, APP215
  Counts / spore kill: Counts remain at approx initial level, i.e. no spore kill.
B. cereus 204; 500 ppm, TCSM010521, APP215
  Total inhibition for: Total inhibition by 500 and 1000 ppm for >27 days.
B. cereus 204; 1000 ppm, TCSM010521, APP215
  Total inhibition for: Total inhibition by 500 and 1000 ppm for >27 days.
B. cereus 204; 2000 and 4000 ppm, TCS010412, APP20010213
  Counts / spore kill: Counts remain at initial level, i.e. no spore kill.
B. cereus 204; 2000 ppm, TCS010412, APP20010213
  Total inhibition for: Total inhibition by 2000 and 4000 ppm for >60 days.
B. cereus 204; 4000 ppm, TCS010412, APP20010213
  Total inhibition for: Total inhibition by 2000 and 4000 ppm for >60 days.
Stability in water
  Completely disappears after: 2 months
  Stable in water for: 2 weeks
[1]
  Function as an antibiotic: did not function satisfactorily as an antibiotic
